Measured values as given in patent US20020002171A1, “Materials and methods for killing nematodes and nematode eggs” (priority 2000, published 2002).

Tested on: Caenorhabditis elegans
Test: C. elegans L1 nematicidal dose response in 96-well plates, 5 day visual score (Example 2; same procedure for Example 7, Table 3)
Type: in vivo
Parameters: key to 5 Day Visual Score V1 / 5 Day Visual Score V2 / 5 Day Visual Score V3 / 5 Day Visual Score V4 / 5 Day Visual Score V6 / 5 Day Visual Score V5 / Initial HTS Run Visual Score / Follow-up HTS Run Visual Score: Dead: only stiff L1s (no movement); Dead (L4): worms are dead, but at a later larval stage; majority of worms are L1 (based on size) worms move when plate is tapped; majority of worms are L2 (based on size); majority of worms are L3 (based on size); majority of worms are L4 (based on size); AD: majority of worms are adult; #AD: 5 adult worms or less; B!: sterile (0-25 progeny); B: low broodsize (25-100 progeny); ˜B: moderate broodsize (100-250 progeny); <: reduced broodsize (250-500 progeny); OK: no effect (˜1000+ progeny)
Procedure: Caenorhabditis elegans adults were grown on Nematode Growth Medium (NGM) until they produced eggs, then the adults were removed.
The eggs were allowed to hatch, and the L1 larvae collected. See The Nematode Caenorhabditis elegans (1988) Cold Spring Harbor Laboratory Press. Using a Matrix Programmable Pipette, the L1s were distributed into 96-well tissue culture plates, 20 L1 in 50 μl NGM per well. Antibiotic/Antimyoticwas added to each well, and 1% by weight E. coli strain HB101. The subject anthelmintic compounds were stored at 5 mM in 100% DMSO. 0.7 μl of compounds 1-31 were added to the left-most column of wells to yield a final concentration of 70 μM in 1.4% DMSO, with 1.4% DMSO only as the control. The compounds were then subjected to 5 more 3-fold dilutions from left to right to yield 6 column concentrations of 70 μM, 23.3 μM, 7.8 μM, 2.6 μM, 0.9 μM, and 0.3 μM. Plates were stored in air-tight Rubbermaid plastic boxes at 20° C. The nematodes had cleared all control wells by day 4, and nematode viability was scored by visual examination under a 100× dissecting microsope on day 5. A visual viability scoring system was used as follows:
Column V1 has a compound concentration of 70 μM with sequential 3-fold dilutions reported in columns V2, V3, V4, V5, and V6, respectively, such that the V6 concentration was 0.3 μM.
The nematicidal activity of anthelmintic Compositions 48-168 were determined in accordance with the procedure outlined in Example 2.

[1] = dose response, dilution V2, day 5
[2] = dose response, dilution V3, day 5
[3] = dose response, dilution V4, day 5
[4] = dose response, dilution V5, day 5
[5] = dose response, dilution V6, day 5
[6] = dose response, dilution V1, 5 day
[7] = dose response, dilution V3, 5 day
[8] = dose response, dilution V4, 5 day
[9] = dose response, dilution V5, 5 day
[10] = dose response, dilution V6, 5 day
[11] = dose response, dilution V1, day 5
[12] = dose response, dilution V2, 5 day

| SMILES | Follow-up HTS Run % Run [%] | Follow-up HTS Run mOD [mOD] | Initial HTS Run % Run [%] | Initial HTS Run mOD [mOD] | 5 Day Visual Score V2 [1] | 5 Day Visual Score V3 [2] | 5 Day Visual Score V4 [3] | 5 Day Visual Score V5 [4] | 5 Day Visual Score V6 [5] | 5 Day Visual Score V4 [8] | 5 Day Visual Score V5 [9] | 5 Day Visual Score V6 [10] | Initial HTS Run Visual Score | 5 Day Visual Score V1 [11] | Follow-up HTS Run Visual Score | other results |
| --- | --- | --- | --- | --- | --- | --- | --- | --- | --- | --- | --- | --- | --- | --- | --- | --- |
| CC1CCN(c2nc(NCc3ccc(C(F)(F)F)cc3)ns2)CC1 [compound 247] | 105 | 169 | 91 | 100 | ˜B (moderate broodsize (100-250 progeny)) | OK (no effect (˜1000+ progeny)) | OK (no effect (˜1000+ progeny)) | OK (no effect (˜1000+ progeny)) | OK (no effect (˜1000+ progeny)) | – | – | – | – | – | – | – |
| C=CCN(CC=C)c1nc(NCc2ccc(C(F)(F)F)cc2)ns1 [compound 312] | 115 | 185 | 104 | 114 | – | – | – | – | – | OK (no effect (˜1000+ progeny)) | OK (no effect (˜1000+ progeny)) | OK (no effect (˜1000+ progeny)) | – | – | – | 5 Day Visual Score V1 [6]: L1; 5 Day Visual Score V3 [7]: ˜B (moderate broodsize (100-250 progeny)) |
| Fc1cccc(F)c1CNc1nsc(N2CCN(c3cccc(C(F)(F)F)c3)CC2)n1 [compound 246] | 130 | 209 | 123 | 135 | – | OK (no effect (˜1000+ progeny)) | OK (no effect (˜1000+ progeny)) | OK (no effect (˜1000+ progeny)) | OK (no effect (˜1000+ progeny)) | – | – | – | L3 | Dead | – | – |
| FC(F)(F)c1ccc(CNc2nsc(N3CCN(c4ncccn4)CC3)n2)cc1 [compound 303] | 111 | 178 | 96 | 106 | L1 | Dead | OK (no effect (˜1000+ progeny)) | < (reduced broodsize (250-500 progeny)) | – | – | – | – | L3 | Dead | – | – |
| CN(Cc1ccccc1)c1nc(NCc2ccccc2C(F)(F)F)ns1 [compound 323] | 120 | 193 | 110 | 121 | – | – | – | – | – | < (reduced broodsize (250-500 progeny)) | OK (no effect (˜1000+ progeny)) | OK (no effect (˜1000+ progeny)) | L3/L4/AD/B!-Clear | – | L4/AD/B! | 5 Day Visual Score V1 [6]: L4#AD/B!; 5 Day Visual Score V3 [7]: OK (no effect (˜1000+ progeny)) |
| CCN(CC)C(=O)C1CCCN(c2nc(N3CCN(c4ccc(F)cc4)CC3)ns2)C1 (stereo not shown) [compound 223] | 118 | 190 | 107 | 118 | B (low broodsize (25-100 progeny)) | < (reduced broodsize (250-500 progeny)) | OK (no effect (˜1000+ progeny)) | OK (no effect (˜1000+ progeny)) | OK (no effect (˜1000+ progeny)) | – | – | – | – | Dead | Dead | – |
| CCOC(=O)CCN(Cc1ccccc1)c1nc(NCc2ccc(C(F)(F)F)cc2)ns1 [compound 313] | 106 | 170 | 97 | 107 | – | – | – | – | – | < (reduced broodsize (250-500 progeny)) | OK (no effect (˜1000+ progeny)) | OK (no effect (˜1000+ progeny)) | L2 - (Dead L3) | – | – | 5 Day Visual Score V1 [6]: Dead(L2/L3); 5 Day Visual Score V2 [12]: Dead(L3) |
| CCCCCCCCCCCCCCCCCCN(C)c1nc(NCCC(c2ccccc2)c2ccccc2)ns1 [compound 288] | 82 | 132 | 105 | 116 | B (low broodsize (25-100 progeny)) | OK (no effect (˜1000+ progeny)) | OK (no effect (˜1000+ progeny)) | OK (no effect (˜1000+ progeny)) | OK (no effect (˜1000+ progeny)) | – | – | – | L3/L4/1AD/B | L1 | L4/AD/B! | – |
| CCCN(CC1CC1)c1nc(NCc2ccccc2C(F)(F)F)ns1 [compound 260] | 147 | 236 | 122 | 134 | B (low broodsize (25-100 progeny)) | OK (no effect (˜1000+ progeny)) | OK (no effect (˜1000+ progeny)) | OK (no effect (˜1000+ progeny)) | OK (no effect (˜1000+ progeny)) | – | – | – | L2 (Dead L3) | L1 | L2 | – |
| CCCCN(CC)c1nc(NCc2ccc(C(F)(F)F)cc2)ns1 [compound 308] | 130 | 210 | 112 | 123 | – | #AD/˜B | OK (no effect (˜1000+ progeny)) | OK (no effect (˜1000+ progeny)) | OK (no effect (˜1000+ progeny)) | – | – | – | – | L1 | – | – |
| Fc1ccc(N2CCN(c3nc(NCCC(c4ccccc4)c4ccccc4)ns3)CC2)cc1 [AKC 134] | – | – | – | – | – | – | – | – | – | – | – | – | – | – | – | 5 Day Visual Score V6 (0.3 μM, C. elegans L1, scored day 5): OK (no effect (˜1000+ progeny)); 5 Day Visual Score V3 (7.8 μM, C. elegans L1, scored day 5): Dead; 5 Day Visual Score V2 (23.3 μM, C. elegans L1, scored day 5): Dead; 5 Day Visual Score V1 (70 μM, C. elegans L1, scored day 5): Dead |
| CCN(c1nc(NCc2ccccc2)ns1)C1CCCCC1 [compound 325] | 111 | 179 | 103 | 113 | – | – | – | – | – | < (reduced broodsize (250-500 progeny)) | < (reduced broodsize (250-500 progeny)) | OK (no effect (˜1000+ progeny)) | L3/L4/AD/B | – | L4/AD/B | 5 Day Visual Score V2 [12]: #AD/˜B; 5 Day Visual Score V3 [7]: < (reduced broodsize (250-500 progeny)) |
